The record followed here is BindingDB's records for patent US9273014 (Bristol-Myers Squibb Co., 2016).

The assay concerns the target Neurogenic locus notch homolog protein 3 (Human, UniProt Q9UM47). The assay can be described thus: Biological Assay.

SMILES strings stand for the structures.

Sequence of Neurogenic locus notch homolog protein 3 (Q9UM47 whole entry): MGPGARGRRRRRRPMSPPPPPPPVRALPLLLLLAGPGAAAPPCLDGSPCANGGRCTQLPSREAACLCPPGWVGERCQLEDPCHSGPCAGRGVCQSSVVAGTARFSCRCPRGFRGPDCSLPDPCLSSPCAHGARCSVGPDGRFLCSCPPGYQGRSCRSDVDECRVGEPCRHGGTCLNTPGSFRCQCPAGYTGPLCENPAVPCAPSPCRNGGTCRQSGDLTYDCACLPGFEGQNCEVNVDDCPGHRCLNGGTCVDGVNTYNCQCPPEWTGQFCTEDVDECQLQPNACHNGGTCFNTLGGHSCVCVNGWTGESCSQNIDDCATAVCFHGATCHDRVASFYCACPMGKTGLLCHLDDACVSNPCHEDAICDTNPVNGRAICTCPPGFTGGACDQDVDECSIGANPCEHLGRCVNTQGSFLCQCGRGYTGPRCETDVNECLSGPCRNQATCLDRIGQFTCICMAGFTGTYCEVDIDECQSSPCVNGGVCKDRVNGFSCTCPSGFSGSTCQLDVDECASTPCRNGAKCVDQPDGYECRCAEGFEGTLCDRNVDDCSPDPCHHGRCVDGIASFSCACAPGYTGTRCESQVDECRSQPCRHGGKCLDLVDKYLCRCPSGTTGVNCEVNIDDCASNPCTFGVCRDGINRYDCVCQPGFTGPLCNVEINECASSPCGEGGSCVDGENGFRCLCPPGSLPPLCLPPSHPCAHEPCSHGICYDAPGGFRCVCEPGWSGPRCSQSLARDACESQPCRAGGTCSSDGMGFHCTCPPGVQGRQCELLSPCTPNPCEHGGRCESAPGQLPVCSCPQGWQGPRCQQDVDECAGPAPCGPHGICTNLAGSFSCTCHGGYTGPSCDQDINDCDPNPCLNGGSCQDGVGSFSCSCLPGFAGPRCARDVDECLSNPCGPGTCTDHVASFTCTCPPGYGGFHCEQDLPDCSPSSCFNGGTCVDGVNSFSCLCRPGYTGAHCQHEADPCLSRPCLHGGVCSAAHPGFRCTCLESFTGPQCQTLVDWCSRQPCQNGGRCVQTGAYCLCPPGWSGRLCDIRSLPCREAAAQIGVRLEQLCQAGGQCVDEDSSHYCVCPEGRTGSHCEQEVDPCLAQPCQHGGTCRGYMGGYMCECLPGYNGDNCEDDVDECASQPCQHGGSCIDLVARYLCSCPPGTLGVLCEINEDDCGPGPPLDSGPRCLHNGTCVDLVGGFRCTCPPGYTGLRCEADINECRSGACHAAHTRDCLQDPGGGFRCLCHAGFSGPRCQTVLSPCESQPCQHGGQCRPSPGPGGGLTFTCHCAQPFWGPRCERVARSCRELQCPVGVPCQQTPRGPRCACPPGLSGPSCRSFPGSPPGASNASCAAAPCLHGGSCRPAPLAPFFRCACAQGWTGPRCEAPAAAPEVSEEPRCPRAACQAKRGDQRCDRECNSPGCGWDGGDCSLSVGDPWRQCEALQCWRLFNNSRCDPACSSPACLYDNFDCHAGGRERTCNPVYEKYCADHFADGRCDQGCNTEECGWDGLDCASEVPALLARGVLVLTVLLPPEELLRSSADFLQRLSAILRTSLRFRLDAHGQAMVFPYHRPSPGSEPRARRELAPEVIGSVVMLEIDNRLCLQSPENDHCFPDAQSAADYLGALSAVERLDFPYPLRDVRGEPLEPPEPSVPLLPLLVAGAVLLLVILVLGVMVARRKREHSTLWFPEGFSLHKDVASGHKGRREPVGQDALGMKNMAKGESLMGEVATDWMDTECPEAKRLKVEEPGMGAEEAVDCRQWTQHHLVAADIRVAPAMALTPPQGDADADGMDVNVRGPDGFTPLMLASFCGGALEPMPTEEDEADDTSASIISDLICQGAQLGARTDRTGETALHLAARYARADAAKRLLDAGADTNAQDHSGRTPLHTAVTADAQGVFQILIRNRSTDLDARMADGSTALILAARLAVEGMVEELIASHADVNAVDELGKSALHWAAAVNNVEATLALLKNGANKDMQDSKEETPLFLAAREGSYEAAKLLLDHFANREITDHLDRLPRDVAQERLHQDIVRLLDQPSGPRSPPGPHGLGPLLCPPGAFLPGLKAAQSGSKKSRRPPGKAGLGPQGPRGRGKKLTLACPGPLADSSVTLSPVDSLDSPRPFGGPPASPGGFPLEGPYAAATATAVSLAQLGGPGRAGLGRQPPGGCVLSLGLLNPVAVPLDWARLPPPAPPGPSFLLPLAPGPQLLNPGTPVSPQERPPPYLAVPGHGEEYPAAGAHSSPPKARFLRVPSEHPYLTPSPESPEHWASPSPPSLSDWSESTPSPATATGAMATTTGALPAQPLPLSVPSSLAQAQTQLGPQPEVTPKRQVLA

For the compound `CC(C)c1cccc2c1NC(=O)[C@@H](NC(=O)[C@H](CCC(F)(F)F)[C@H](CCC(F)(F)F)C(N)=O)N=C2c1ccccc1` [US9273014, 13], the IC50 was 4.9 nM.

In turn, `COc1cccc2c1NC(=O)[C@@H](NC(=O)[C@H](CCC(F)(F)F)[C@H](CCC(F)(F)F)C(N)=O)N=C2c1cccc(C)c1` [US9273014, 29] yielded a 50% inhibitory concentration (IC50) of 5.7 nM.
